Where two headings read alike, the source gives them in different places.
Columns and labels:
Type in all cases: cell-based, Escherichia coli
ΔtolC-Pore = assay: microbe, parasite or virus in culture; conditions: for Minimum inhibitory concentration (MIC), Pore ΔtolC: Table 10, with pore
Summary of the method: (§1)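 E. coli strains carrying a genomically integrated constitutive fhuA ΔC/Δ4L pore were grown 18 h in LB at 37 °C, then diluted 1/2000 in MHB II from OD600 ~1.0. Compounds were tested in duplicate, 2-fold serial titration, for 18 h at 37 °C with shaking. MIC came from OD600 with the pre-incubation background subtracted.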

wild-type (WT) K-12-Pore = assay: microbe, parasite or virus in culture; conditions: technical duplicate; for MIC: Escherichia coli
Summary of the method: as §1

EKO-35 araC::mdtBC = assay: MIC susceptibility profiling, efflux platform; conditions: for Fold change of MICs: EKO-35 araC::mdtBC compared to EKO-35
Summary of the method: (§2)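 LB o/n 37 °C → PBS pH 7.4, OD600 ~1.0 → 1/2000 in MHB II; 2-fold cmpd series, duplicate, DMSO ctrl; 18 h 37 °C, 900 rpm; OD600 post minus pre.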

EKO-35 araC::mdtEF = assay: MIC susceptibility profiling, efflux platform; conditions: for Fold change of MICs: EKO-35 araC::mdtEF compared to EKO-35
Summary of the method: as §2

E. coli ΔtolC = assay: microbe, parasite or virus in culture; conditions: for Minimum inhibitory concentration (MIC), ΔtolC: Table 10, without pore
Summary of the method: as §2

[1] = test system: wild-type E. coli K-12 str. BW25113; assay: microbe, parasite or virus in culture; conditions: technical duplicate; for MIC: Escherichia coli, BW25113
Summary of the method: as §2

E. coli EKO-35 = assay: microbe, parasite or virus in culture; conditions: for Fold change of MICs: EKO-35 compared to EKO-35 (reference); for MIC: Escherichia coli, EKO35
Summary of the method: as §2

EKO-35-Pore = assay: MIC susceptibility profiling, porinated strain; conditions: for Fold changes of MICs: EKO-35-Pore compared to EKO-35-Pore (reference); for MIC: Escherichia coli
Summary of the method: as §1

EKO-35 araC::mexCD Pore = assay: MIC susceptibility profiling, porinated efflux platform; conditions: for Fold changes of MICs: EKO-35 araC::mexCD Pore compared to EKO-35-Pore
Summary of the method: as §1

EKO-35 araC::acrEF Pore = assay: as above; conditions: for Fold changes of MICs: EKO-35 araC::acrEF Pore compared to EKO-35-Pore
Summary of the method: as §1

[2] = test system: EKO-35 araC::acrBD408A Pore; assay: as above
Summary of the method: as §1

EKO-35 araC::emrAB Pore = assay: as above; conditions: for Fold changes of MICs: EKO-35 araC::emrAB Pore compared to EKO-35-Pore
Summary of the method: as §1

EKO-35 araC::emrKY Pore = assay: as above; conditions: for Fold changes of MICs: EKO-35 araC::emrKY Pore compared to EKO-35-Pore
Summary of the method: as §1

EKO-35 araC::acrB Pore = assay: as above; conditions: for Fold changes of MICs: EKO-35 araC::acr-B Pore compared to EKO-35-Pore
Summary of the method: as §1

EKO-35 araC::mdtEF Pore = assay: as above; conditions: for Fold changes of MICs: EKO-35 araC::mdtEF Pore compared to EKO-35-Pore
Summary of the method: as §1

EKO-35 araC::acrD Pore = assay: as above; conditions: for Fold changes of MICs: EKO-35 araC::acrD Pore compared to EKO-35-Pore
Summary of the method: as §1

EKO-35 araC::macAB Pore = assay: as above; conditions: for Fold changes of MICs: EKO-35 araC::macAB Pore compared to EKO-35-Pore
Summary of the method: as §1

EKO-35 araC::mdtBC Pore = assay: as above; conditions: for Fold changes of MICs: EKO-35 araC::mdtBC Pore compared to EKO-35-Pore
Summary of the method: as §1

[3] = Table 14A, porinated, technical duplicate
[4] = Table 13A, non-porinated, technical duplicate

SMILES: O=C(Nc1ccccc1C(=O)Nc1nnc(C(F)(F)F)s1)c1ccccc1Cl [compound 19]
- Minimum inhibitory concentration (MIC), Pore ΔtolC (ΔtolC-Pore; technical duplicate): 0.625 µg/mL
- Minimum inhibitory concentration, ΔtolC-Pore (ΔtolC-Pore; [3]): 0.625 µg/mL
- Minimum inhibitory concentration (MIC), Pore K-12 (wild-type (WT) K-12-Pore; Table 10, with pore): 320 µg/mL
- Minimum inhibitory concentration, K-12 (WT)-Pore (wild-type (WT) K-12-Pore; Table 14A, porinated): 320 µg/mL
- Fold change of MICs (EKO-35 araC::mdtBC): 1 fold
- Minimum Inhibitory Concentration, EKO-35 araC::mdtBC (EKO-35 araC::mdtBC; Table 13B, non-porinated, technical duplicate): 320 µg/mL
- Fold change of MICs (EKO-35 araC::mdtEF): 1 fold
- Minimum Inhibitory Concentration, EKO-35 araC::mdtEF (EKO-35 araC::mdtEF; [4]): 320 µg/mL
- Minimum inhibitory concentration (MIC), ΔtolC (E. coli ΔtolC; technical duplicate): 2.5 µg/mL
- Minimum Inhibitory Concentration, ΔtolC (E. coli ΔtolC; [4]): 2.5 µg/mL
- Minimum inhibitory concentration (MIC), K-12 ([1]; Table 10, without pore): 320 µg/mL
- Minimum Inhibitory Concentration, K-12 ([1]; Table 13A, non-porinated): 320 µg/mL
- Fold change of MICs (E. coli EKO-35): 1 fold
- Minimum inhibitory concentration (MIC), EKO-35 (E. coli EKO-35; Table 10, without pore, technical duplicate): 320 µg/mL
- Minimum Inhibitory Concentration, EKO-35 (E. coli EKO-35; [4]): 320 µg/mL
- Fold changes of MICs (EKO-35-Pore): 1 fold
- Minimum inhibitory concentration (MIC), Pore EKO-35 (EKO-35-Pore; Table 10, with pore, technical duplicate): 320 µg/mL
- Minimum inhibitory concentration, EKO-35-Pore (EKO-35-Pore; [3]): 320 µg/mL
- Fold changes of MICs (EKO-35 araC::mexCD Pore): 1 fold
- Minimum inhibitory concentration (EKO-35 araC::mexCD Pore; EKO-35 araC::mexCD Pore, technical duplicate): 320 µg/mL
- Fold changes of MICs (EKO-35 araC::acrEF Pore): 1 fold
- Minimum inhibitory concentration, EKO-35 araC::acrEF Pore (EKO-35 araC::acrEF Pore; [3]): 320 µg/mL
- Minimum inhibitory concentration ([2]; EKO-35 araC::acrBD408A Pore, technical duplicate): 320 µg/mL
- Fold changes of MICs (EKO-35 araC::emrAB Pore): 1 fold
- Minimum inhibitory concentration (EKO-35 araC::emrAB Pore; EKO-35 araC::emrAB Pore, technical duplicate): 320 µg/mL
- Fold changes of MICs (EKO-35 araC::emrKY Pore): 1 fold
- Minimum inhibitory concentration (EKO-35 araC::emrKY Pore; EKO-35 araC::emrKY Pore, technical duplicate): 320 µg/mL
- Fold changes of MICs (EKO-35 araC::acrB Pore): 1 fold
- Minimum inhibitory concentration, EKO-35 araC::acrB Pore (EKO-35 araC::acrB Pore; [3]): 320 µg/mL
- Fold changes of MICs (EKO-35 araC::mdtEF Pore): 1 fold
- Minimum inhibitory concentration, EKO-35 araC::mdtEF Pore (EKO-35 araC::mdtEF Pore; [3]): 320 µg/mL
- Fold changes of MICs (EKO-35 araC::acrD Pore): 1 fold
- Minimum inhibitory concentration, EKO-35 araC::acrD Pore (EKO-35 araC::acrD Pore; [3]): 320 µg/mL
- Fold changes of MICs (EKO-35 araC::macAB Pore): 1 fold
- Minimum inhibitory concentration (EKO-35 araC::macAB Pore; EKO-35 araC::macAB Pore, technical duplicate): 320 µg/mL
- Fold changes of MICs (EKO-35 araC::mdtBC Pore): 1 fold
- Minimum inhibitory concentration (EKO-35 araC::mdtBC Pore; EKO-35 araC::mdtBC Pore, technical duplicate): 320 µg/mL

SMILES: COc1cccc2c1C(=O)c1c(O)c3c(c(O)c1C2=O)C[C@@](O)(C(=O)CO)C[C@@H]3O[C@H]1C[C@H](N)[C@H](O)[C@H](C)O1 [doxorubicin]
- MIC (ΔtolC-Pore; Escherichia coli, 18 h, read-out: Minimum inhibitory concentration, ΔtolC-Pore): 0.781 µg/mL
- Minimum inhibitory concentration (MIC), Pore ΔtolC (ΔtolC-Pore; technical duplicate): 0.781 µg/mL
- MIC (wild-type (WT) K-12-Pore; Table 10, with pore, read-out: Minimum inhibitory concentration (MIC), Pore K-12): 50 µg/mL
- MIC (wild-type (WT) K-12-Pore; Table 14A, porinated, read-out: Minimum inhibitory concentration, K-12 (WT)-Pore): 50 µg/mL
- Fold change of MICs (EKO-35 araC::mdtBC): 1 fold
- MIC (EKO-35 araC::mdtBC; Escherichia coli, Table 13B, non-porinated, technical duplicate, read-out: Minimum Inhibitory Concentration, EKO-35 araC::mdtBC): 1.56 µg/mL
- Fold change of MICs (EKO-35 araC::mdtEF): 64 fold
- MIC (EKO-35 araC::mdtEF; Escherichia coli, Table 13A, non-porinated, technical duplicate, read-out: Minimum Inhibitory Concentration, EKO-35 araC::mdtEF): 100 µg/mL
- MIC (E. coli ΔtolC; Escherichia coli, 18 h, read-out: Minimum Inhibitory Concentration, ΔtolC): 1.56 µg/mL
- Minimum inhibitory concentration (MIC), ΔtolC (E. coli ΔtolC; technical duplicate): 1.563 µg/mL
- MIC ([1]; Table 10, without pore, read-out: Minimum inhibitory concentration (MIC), K-12): 200 µg/mL
- MIC ([1]; Table 13A, non-porinated, read-out: Minimum Inhibitory Concentration, K-12): 200 µg/mL
- Fold change of MICs (E. coli EKO-35): 1 fold
- MIC (E. coli EKO-35; Table 10, without pore, technical duplicate, read-out: Minimum inhibitory concentration (MIC), EKO-35): 1.56 µg/mL
- MIC (E. coli EKO-35; Table 13A, non-porinated, technical duplicate, read-out: Minimum Inhibitory Concentration, EKO-35): 1.56 µg/mL
- Fold changes of MICs (EKO-35-Pore): 1 fold
- MIC (EKO-35-Pore; Table 10, with pore, technical duplicate, read-out: Minimum inhibitory concentration (MIC), Pore EKO-35): 0.781 µg/mL
- MIC (EKO-35-Pore; Table 14A, porinated, technical duplicate, read-out: Minimum inhibitory concentration, EKO-35-Pore): 0.781 µg/mL
- Fold changes of MICs (EKO-35 araC::mexCD Pore): 4 fold
- MIC (EKO-35 araC::mexCD Pore; Escherichia coli, EKO-35 araC::mexCD Pore, technical duplicate, read-out: Minimum inhibitory concentration): 3.12 µg/mL
- Fold changes of MICs (EKO-35 araC::acrEF Pore): 16 fold
- MIC (EKO-35 araC::acrEF Pore; Escherichia coli, Table 14A, porinated, technical duplicate, read-out: Minimum inhibitory concentration, EKO-35 araC::acrEF Pore): 12.5 µg/mL
- Fold changes of MICs ([2]; EKO-35 araC::acrBD408A Pore compared to EKO-35-Pore): 1 fold
- MIC ([2]; Escherichia coli, EKO-35 araC::acrBD408A Pore, technical duplicate, read-out: Minimum inhibitory concentration): 0.781 µg/mL
- Fold changes of MICs (EKO-35 araC::emrAB Pore): 1 fold
- MIC (EKO-35 araC::emrAB Pore; Escherichia coli, EKO-35 araC::emrAB Pore, technical duplicate, read-out: Minimum inhibitory concentration): 0.781 µg/mL
- Fold changes of MICs (EKO-35 araC::emrKY Pore): 1 fold
- MIC (EKO-35 araC::emrKY Pore; Escherichia coli, EKO-35 araC::emrKY Pore, technical duplicate, read-out: Minimum inhibitory concentration): 0.781 µg/mL
- Fold changes of MICs (EKO-35 araC::acrB Pore): 64 fold
- Fold changes of MICs (EKO-35 araC::mdtEF Pore): 32 fold
- MIC (EKO-35 araC::mdtEF Pore; Escherichia coli, Table 14A, porinated, technical duplicate, read-out: Minimum inhibitory concentration, EKO-35 araC::mdtEF Pore): 25 µg/mL
- Fold changes of MICs (EKO-35 araC::acrD Pore): 1 fold
- MIC (EKO-35 araC::acrD Pore; Escherichia coli, Table 14A, porinated, technical duplicate, read-out: Minimum inhibitory concentration, EKO-35 araC::acrD Pore): 0.781 µg/mL
- Fold changes of MICs (EKO-35 araC::macAB Pore): 1 fold
- MIC (EKO-35 araC::macAB Pore; Escherichia coli, EKO-35 araC::macAB Pore, technical duplicate, read-out: Minimum inhibitory concentration): 0.781 µg/mL
- Fold changes of MICs (EKO-35 araC::mdtBC Pore): 4 fold
- MIC (EKO-35 araC::mdtBC Pore; Escherichia coli, EKO-35 araC::mdtBC Pore, technical duplicate, read-out: Minimum inhibitory concentration): 3.12 µg/mL
- efflux pump-mediated resistance vs EKO-35-Pore (EKO-35 araC::mdtBC Pore; MdtBC with the pore): associated with resistance

Source: patent publication US20230407243A1, “GENETIC PLATFORM TO INVESTIGATE THE FUNCTIONS OF BACTERIAL DRUG EFFLUX PUMPS” (priority 2022, published 2023)
